The values that follow come from PubChem BioAssay (NCI).

“And” between values parts separate entries of the source, which are not always exact repeats. Identical values can stand only once.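 Results reflect a 48-hour exposure of cells in 96-well plates to compound at five concentrations. Here, GI50 denotes the concentration required for 50% inhibition of growth. The concentration for full growth arrest is given as TGI.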

Among the test systems are CCRF-CEM leukemia; SF-268 CNS; ACHN renal; SF-539 CNS; SK-MEL-28 melanoma; NCI-H23 lung; NCI-H460 lung; LOX IMVI melanoma; SW-620 colon; NCI/ADR-RES ovarian.
Assay in all cases: DTP human tumour cell line panel, 48 h

By TGI is commonly meant the concentration at which net growth stops. On to `O=[N+]([O-])c1cc(-c2nc(=S)[nH][nH]2)ccc1O`, for which the TGI with CCRF-CEM leukemia, in the assay with SF-268 CNS, with ACHN renal, in the assay with SF-539 CNS, with SK-MEL-28 melanoma and in the assay with NCI-H23 lung was more than 100 µM each time. Moreover, the TGI was more than 100 µM with NCI-H460 lung, more than 100 µM with LOX IMVI melanoma and 18.4 µM in the assay on SW-620 colon.

Take `[O-]/N=[N+](/[O-])C1CCCCC1=[N+]1CCOCC1` (centres undefined): the TGI in the assay with CCRF-CEM leukemia, with SF-268 CNS, with ACHN renal, in the assay on SK-MEL-28 melanoma, in the assay on NCI-H23 lung and in the assay on NCI-H460 lung was more than 100 µM each time. This compound displayed a TGI with SW-620 colon of more than 100 µM.

In the case of `OCC1OC2c3ccccc3COC2C1OCc1ccccc1` (centres undefined), the TGI in the assay on ACHN renal, in the assay with SK-MEL-28 melanoma, in the assay with NCI-H23 lung, in the assay on NCI-H460 lung and with SW-620 colon was more than 100 µM throughout.

By GI50 is commonly meant the concentration giving 50% growth inhibition. `CC1CCC2C(C)C(=O)OC3OC4(C)CCC1C32OO4` (centres undefined): the TGI with CCRF-CEM leukemia, in the assay on SF-268 CNS, in the assay with ACHN renal, in the assay with SF-539 CNS, in the assay on SK-MEL-28 melanoma and with NCI-H23 lung was more than 100 µM each time. Also, the TGI in the assay with NCI-H460 lung, in the assay with LOX IMVI melanoma and in the assay on SW-620 colon was more than 100 µM each time. In addition, the GI50 in the assay on ACHN renal, in the assay on SK-MEL-28 melanoma, in the assay on NCI-H23 lung, in the assay on NCI-H460 lung and in the assay with SW-620 colon was more than 100 µM throughout.

As for `O=C(O)CN(c1ccccc1)S(=O)(=O)c1cccc([N+](=O)[O-])c1`, the total growth inhibition concentration (TGI) in the assay on CCRF-CEM leukemia, in the assay with SF-268 CNS, in the assay with ACHN renal, in the assay with SF-539 CNS, with SK-MEL-28 melanoma and with NCI-H23 lung was more than 100 µM in each case. The TGI in the assay on NCI-H460 lung, in the assay with LOX IMVI melanoma and in the assay with SW-620 colon was more than 100 µM throughout.

Take `CC1(C)NC(=O)N(CCCCCCN2C(=O)NC(C)(C)C2=O)C1=O`: the TGI in the assay with CCRF-CEM leukemia, in the assay with SF-268 CNS, in the assay with ACHN renal, in the assay with SK-MEL-28 melanoma, with NCI-H23 lung and in the assay with NCI-H460 lung was more than 100 µM each time. Moreover, the TGI with LOX IMVI melanoma and with SW-620 colon was more than 100 µM each time.

As for `COc1cc2c(cc1OC)C(C#N)N(C(=O)c1ccccc1)C=C2OC(=O)c1ccccc1` (centres undefined), the TGI in the assay with CCRF-CEM leukemia is more than 100 µM; in the assay on SF-268 CNS, 86 µM; with ACHN renal, 43.6 µM; in the assay with SF-539 CNS it was 39 µM; in the assay with SK-MEL-28 melanoma, 58.1 µM; in the assay with NCI-H23 lung, more than 100 µM. Further, the total growth inhibition concentration (TGI) with NCI-H460 lung, in the assay with LOX IMVI melanoma and in the assay on SW-620 colon was more than 100 µM each time.

For the compound `C/C(CCn1[nH]c(=O)ccc1=O)=N\NC(=O)C(N)=O`, the TGI in the assay on SF-268 CNS, in the assay on ACHN renal, with SF-539 CNS, in the assay with SK-MEL-28 melanoma, with NCI-H23 lung and with NCI-H460 lung was more than 100 µM in each case. Moreover, the TGI with LOX IMVI melanoma and in the assay with SW-620 colon was more than 100 µM throughout.

As to `COc1cc2c3c(n(CCCN(CCCN(CCCn4c5c(c6ccccc6c4=O)C(=O)c4ccccc4-5)C(=O)OC(C)(C)C)C(=O)OC(C)(C)C)c(=O)c2cc1OC)-c1cc2c(cc1C3=O)OCO2`, the GI50 was more than 100 µM in the assay with SF-268 CNS; more than 100 µM with SK-MEL-28 melanoma; more than 100 µM in the assay on NCI-H23 lung; 21.5 µM in the assay with NCI-H460 lung; 26.5 µM in the assay on LOX IMVI melanoma; more than 100 µM in the assay on SW-620 colon. For the same compound, the GI50 in the assay on NCI/ADR-RES ovarian is more than 100 µM. For the same compound, the total growth inhibition concentration (TGI) in the assay with SF-268 CNS, with SK-MEL-28 melanoma, with NCI-H23 lung, in the assay on NCI-H460 lung, in the assay with LOX IMVI melanoma and in the assay on SW-620 colon was more than 100 µM throughout. The compound also yielded a TGI with NCI/ADR-RES ovarian of more than 100 µM.

On to `N#CCCN(CCC#N)c1ccc(/C=C(/NC(=O)c2cc([N+](=O)[O-])ccc2Cl)C(=O)NN)cc1`, for which the TGI in the assay with CCRF-CEM leukemia, with SF-268 CNS, in the assay on ACHN renal, with SF-539 CNS, in the assay with SK-MEL-28 melanoma and in the assay with NCI-H23 lung was more than 100 µM throughout. The TGI with NCI-H460 lung, in the assay on LOX IMVI melanoma and with SW-620 colon was more than 100 µM in each case.

Take `C/C(=N\NC(=S)N1CCN(c2ccccn2)CC1)c1ccccn1`: the TGI in the assay with CCRF-CEM leukemia is 0.878 µM and 0.317 µM; in the assay with SF-268 CNS it was 14.2 µM; with ACHN renal, 8.52 µM; with SF-539 CNS, 8.02 µM; in the assay on SK-MEL-28 melanoma, 19.3 µM; in the assay with NCI-H23 lung, 11.5 µM. The TGI in the assay with NCI-H460 lung turned out to be 12.9 µM; in the assay with LOX IMVI melanoma, 14.4 µM; in the assay on SW-620 colon it was 16.2 µM. Besides, the figures for the GI50 in the assay on ACHN renal, in the assay with SF-539 CNS and with NCI-H460 lung were 0.00217 µM, 0.0272 µM and 0.0102 µM, respectively.

Take `O=C(NC(=Nc1ccccc1)SCSC(=Nc1ccccc1)NC(=O)c1ccco1)c1ccco1`: the TGI in the assay with CCRF-CEM leukemia was more than 100 µM; in the assay with SF-268 CNS it was more than 100 µM; with ACHN renal, more than 100 µM; in the assay on SF-539 CNS, 59.1 µM; with SK-MEL-28 melanoma, more than 100 µM; with NCI-H23 lung it was 80.6 µM. Also, the TGI with NCI-H460 lung, in the assay on LOX IMVI melanoma and in the assay with SW-620 colon was more than 100 µM throughout.

`c1ccc2c(c1)SC(=C1Sc3ccccc3S1)S2`: the TGI in the assay on CCRF-CEM leukemia, in the assay on SF-268 CNS, in the assay on ACHN renal, in the assay with SK-MEL-28 melanoma, in the assay on NCI-H23 lung and in the assay with NCI-H460 lung was more than 100 µM throughout. Moreover, the TGI in the assay with LOX IMVI melanoma and in the assay on SW-620 colon was more than 100 µM throughout.

On to `O=C(COc1ccccc1Cl)N1N=C(c2ccccc2)CC1(O)c1ccccc1` (centres undefined), for which the TGI is more than 100 µM in the assay on SF-268 CNS; 55.7 µM in the assay with ACHN renal; 34.2 µM in the assay on SF-539 CNS; 31.7 µM with SK-MEL-28 melanoma; 25.1 µM in the assay on NCI-H23 lung; 32 µM in the assay on NCI-H460 lung. For the same compound, the TGI with LOX IMVI melanoma came to 30.4 µM; in the assay with SW-620 colon, 79.1 µM.
